Test results taken from PubChem BioAssay (NCI).
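Five compound concentrations were applied to cells in 96-well plates for 48 hours; endpoints were derived by simple linear interpolation of the resulting dose-response curve. The concentration for full growth arrest is given as TGI.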

How the values were obtained:
Assay in all cases: growth of human tumour cells (NCI), 48 h
[1] = tested on: SR leukemia
[2] = tested on: HT29 colon
[3] = tested on: MOLT-4 leukemia
[4] = tested on: NCI/ADR-RES ovarian
[5] = tested on: MDA-N
[6] = tested on: MDA-MB-435
[7] = tested on: T-47D breast
[8] = tested on: COLO 205 colon
[9] = tested on: SW-620 colon
[10] = tested on: HCC-2998 colon
[11] = tested on: NCI-H23 lung
[12] = tested on: OVCAR-3 ovarian
[13] = tested on: SK-MEL-2 melanoma
[14] = tested on: MDA-MB-231 breast
[15] = tested on: HS 578T breast
[16] = tested on: HOP-92 NSCLC
[17] = tested on: HOP-62 NSCLC
[18] = tested on: NCI-H522 lung
[19] = tested on: HCT-15 colon
[20] = tested on: CAKI-1 renal
[21] = tested on: HCT-116 colon
[22] = tested on: M14 melanoma
[23] = tested on: U251 CNS
[24] = tested on: OVCAR-8 ovarian
[25] = tested on: 786-0 renal
[26] = tested on: IGROV1 ovarian
[27] = tested on: A498 renal
[28] = tested on: UO-31 renal
[29] = tested on: SN12C renal
[30] = tested on: UACC-257 melanoma
[31] = tested on: EKVX NSCLC
[32] = tested on: SF-268 CNS
[33] = tested on: ACHN renal
[34] = tested on: LOX IMVI melanoma
[35] = tested on: UACC-62 melanoma
[36] = tested on: HL-60(TB) leukemia
[37] = tested on: SF-539 CNS
[38] = tested on: A549 NSCLC
[39] = tested on: DU-145 prostate
[40] = tested on: SK-MEL-5 melanoma
[41] = tested on: CCRF-CEM leukemia
[42] = tested on: BT-549 breast
[43] = tested on: OVCAR-5 ovarian
[44] = tested on: MCF7 breast
[45] = tested on: SNB-75 CNS
[46] = tested on: TK-10 renal
[47] = tested on: SNB-19 CNS
[48] = tested on: RXF 393 renal
[49] = tested on: NCI-H460 lung
[50] = tested on: SF-295 CNS
[51] = tested on: K-562 leukemia
[52] = tested on: KM12 colon
[53] = tested on: PC-3 prostate
[54] = tested on: OVCAR-4 ovarian
[55] = tested on: SK-MEL-28 melanoma

Measured: TGI

COC(=O)C12C3C4(C(=O)OC)C1C1(C(=O)OC)C2C3(C(=O)OC)C41C(=O)N(C(C)C)C(C)C (stereo not given)
> 100 µM: [1] | [2] | [3] | [4] | [5] | [6] | [7] | [8] | [9] | [10] | [11] | [12] | [13] | [14] | [15] | [16] | [17] | [18] | [19] | [20] | [21] | [22] | [23] | [24] | [25] | [26] | [27] | [28] | [29] | [30] | [31] | [32] | [33] | [34] | [35] | [36] | [37] | [38] | [39] | [40] | [41] | [42] | [43] | [44] | [45] | [46] | [47] | [48] | [49] | [50] | [51] | [52] | [53] | [54] | [55]
